In patent US5234948A, “Optically active alkylenedioxybenzene derivatives and their use in therapy” (Mitsubishi Kasei Corporation, priority 1990, dated 1993):
Structures can show the parent of a compound that is named as a salt.

Legend:
5-HT1A receptor [1] = biological target: T1, 5-HT1A receptor (Rattus norvegicus, UniProt P19327); test: biochemical; format: binding; conditions: displacement of [3H]8-OH-DPAT, rat brain membranes, 37° C., 10 minutes; test compounds as HCl salt
T1 sequence (P19327 1-422): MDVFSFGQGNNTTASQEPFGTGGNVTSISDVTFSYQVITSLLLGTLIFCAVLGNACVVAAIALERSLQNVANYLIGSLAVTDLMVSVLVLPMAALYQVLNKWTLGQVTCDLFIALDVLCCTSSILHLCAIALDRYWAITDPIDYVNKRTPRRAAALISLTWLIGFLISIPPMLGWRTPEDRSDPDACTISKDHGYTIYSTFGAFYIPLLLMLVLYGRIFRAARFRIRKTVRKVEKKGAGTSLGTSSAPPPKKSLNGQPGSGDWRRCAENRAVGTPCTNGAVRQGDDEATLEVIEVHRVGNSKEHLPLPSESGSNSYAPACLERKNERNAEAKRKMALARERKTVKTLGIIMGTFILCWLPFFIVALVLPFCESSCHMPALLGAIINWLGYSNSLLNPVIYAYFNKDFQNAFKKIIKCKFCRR
Method: Thus, rat brain was homogenized in Tris-HCl buffer and centrifuged. The resultant precipitates were homogenized again with Tris-HCl buffer and incubated at 37° C. for ten minutes. The mixture was centrifuged again, and the precipitates were homogenized with Tris-HCl buffer containing pergiline, calcium chloride, and ascorbic acid to obtain a membrane preparation for use in the binding assay.
The preparation was mixed with [3H]8-OH-DPAT and a compound to be tested, and incubated at 37° C. for 10 minutes, filtered with whatman GF/B filter. Radioactivity remaining on the filter was measured by […].
Affinity of the test compound to 5-HT1A receptor is represented by Ki value which is calculated from the following equation. [formula] wherein [L] is the concentration of [3H]8-OH-DPAT, Kd is a dissociation constant, and IC50 is the concentration of test compound requisite for attaining 50% inhibition of the binding of [3H]8-OH-DPAT.

5-HT1A receptor [2] = conditions: in words, literature; cited from earlier work
rats = test: conflict test (modified method of Vogel et al), anxiolytic activity; format: in vivo, rat; conditions: oral, 1 hour after administration, control 7.4
Method: The conflict test was performed to examine the anxiolytic activity of compounds. A modification of the method of Vogel et al (Psychopharmacology21, 1, 1971) was used.
Rats were deprived of water for 38 hours prior to the first training session (unpunished session). Each animal was placed in a conflict test apparatus. The rat was allowed to drink water through a spout, and the frequency of drinking action within 10 min was counted. Only rats making more than 100 licks progressed to a further 24 hr deprivation of water. Twenty four hours after the unpunished session, the rat was placed again in the test box. The second session (pre-drug punished session) consisting of a 3 min period started when the rat completed 20 licks and received the first electric shock. After every 20 unpunished licks, subsequent licking was punished. Only rats in which the number of receiving the shocks was reduced by at most 25 times during the pre-drug punished session were included in the test.
The compound to be tested was orally administered to each rat. One hour after the administration, the rat was re-placed in the apparatus to be examined. The number of shocks was counted for three minutes. Buspirone, an anxioselective anxiolytic drug, was used as a positive control.
The anti-conflict activity was evaluated to be positive when the number of shocks in the treated group was higher than that in the control group.

male and female rats = test: Acute Toxicity, oral, 7-days observation; format: in vivo, rat; conditions: p.o., suspended in 0.5% CMC-Na
Method: The compounds (I) suspended in 0.5% CMC-Na aqueous solution were orally administered to male and female rats, and 7-days observation was conducted. ALD (approximate lethal dose) value for Compound No. 1 was 100 mg/kg (p.o.).

| SMILES | Ki (5-HT1A receptor [1]) | other results |
| --- | --- | --- |
| c1ccc2c(c1)OCC(CNCCCOc1cccc3c1OCO3)O2 (racemic) [No. 13 (dl)] | 9.7 nM |  |
| O=C1c2ccccc2S(=O)(=O)N1CCCCN1CCN(c2ncccn2)CC1 [Ipsapirone, 2-{4-[4-(2-pyrimidinyl)-1-piperazynyl]butyl}-1,2-benzisothiazol-3-(2H)one-1,1-dioxydehydrochloride] |  | 5-HT1A receptor binding (known compounds) (5-HT1A receptor [2]): 5-HT1A receptor-binding compounds |
| c1ccc2c(c1)OCC(CNCCCCCOc1ccc3c(c1)OCO3)O2 (racemic) [No. 7 (dl)] | 4.09 nM |  |
| c1ccc2c(c1)OC[C@H](CNCCCOc1ccc3c(c1)OCCCO3)O2 [compound 3] |  | Frequency of receiving the shocks (rats; 0.2 mg/kg): 18.0 times/3 minutes |
| c1ccc2c(c1)OC[C@H](CNCCCCOc1ccc3c(c1)OCO3)O2 [Compound No. 4, 5-[4-{(2S)-(1,4-Benzodioxan-2-ylmethyl) -amino}butoxy]-1,3-benzodioxol hydrochloride] | 0.91 nM |  |
| c1ccc2c(c1)OC[C@H](CNCCCCCOc1ccc3c(c1)OCO3)O2 [Compound No. 7, 5-[5-{(2S)-(1,4-Benzodioxan-2-ylmethyl) -amino}pentyloxy]-1,3-benzodioxol hydrochloride] | 1.84 nM |  |
| c1ccc2c(c1)OC[C@H](CNCCCOc1ccc3c(c1)OCO3)O2 [Compound No. 1, 5-[3-{(2S)-(1,4-Benzodioxan-2-ylmethyl) -amino}propoxy[-1,3-benzodioxol hydrochloride] | 0.29 nM | Frequency of receiving the shocks (rats; 0.05 mg/kg): 20.1 times/3 minutes; ALD (approximate lethal dose) (male and female rats): 100 mg/kg |
| c1ccc2c(c1)OCC(CNCCCOc1ccc3c(c1)OCCCO3)O2 (racemic) [No. 3 (dl)] | 7.6 nM |  |
| c1ccc2c(c1)OCC(CNCCCCOc1ccc3c(c1)OCCCO3)O2 (racemic) [No. 6 (dl)] | 2.9 nM |  |
| O=C1C2C3CCC(C3)C2C(=O)N1CCCCN1CCN(c2ncccn2)CC1 (stereo not drawn) [SM-3997, 3aα, 4β, 7β, 7aβ-hexahydro-2-{4-[4-(2-pyrimidinyl)-1-piperazinyl]butyl}-4,7-methan-1H-isoindol-1,3(2H)dione dihydrogen citrate] |  | 5-HT1A receptor binding (known compounds) (5-HT1A receptor [2]): 5-HT1A receptor-binding compounds |
| c1ccc2c(c1)OC[C@@H](CNCCCOc1ccc3c(c1)OCO3)O2 [No. 1 (R)] | 3.9 nM | Frequency of receiving the shocks (rats; 0.5 mg/kg): 12.5 times/3 minutes |
| c1ccc2c(c1)OC[C@H](CNCCCOc1ccc3c(c1)OCCO3)O2 [compound 2] |  | Frequency of receiving the shocks (rats; 0.2 mg/kg): 21.8 times/3 minutes |
| c1ccc2c(c1)OCC(CNCCCOc1ccc3c(c1)OCCO3)O2 (racemic) [No. 2 (dl)] | 2.5 nM |  |
| c1ccc2c(c1)OCC(CNCCCOc1ccc3c(c1)OCO3)O2 (racemic) [No. 1 (dl)] | 1.6 nM | Frequency of receiving the shocks (rats; 0.25 mg/kg): 20.9 times/3 minutes |
